≈ marks a conversion by molar mass, not a printed value. Like-named read-outs stand apart in the source and are kept apart here. Peptide text beside a SMILES is read from it.
Key:
Staphylococcus aureus = type: cell-based
Description: (§1) The antimicrobial assay was performed according to a modified National Committee for Clinical Laboratory Standards (NCCLS) protocol ([41], [42]). Briefly, 5 × 10^5 CFU/mL bacterial cells were treated with various peptide concentrations and incubated at 37 ± 2°C for 16 to 20 h. The lowest concentration with clear wells was recorded as the MIC for each test molecule. The clear wells were further plated in Mueller-Hinton agar (MHA) plates, followed by incubation overnight at 37 ± 2°C. After plating, the lowest concentration at which no growth was observed was recorded as the MBC. For the serum sensitivity assay, the antimicrobial activity of the peptides was tested in medium containing 50% human serum ([43], [44]).

Acinetobacter baumannii = test: microbe, parasite or virus in culture; type: cell-based
Description: as §1, with “[44]). The antimicrobial assay was performed in the presence of physiological ions and glucose. The test media were supplemented with MgCl2 (1 mM), CaCl2 (2 mM), NaCl (150 mM), KCl (4.5 mM), NH4Cl (6 μM) ([45], [46]), or glucose (0.2%) ([47]), followed by routine antimicrobial assay as described previously. For the pH sensitivity assay, the antimicrobial assay was performed in media adjusted to pH values ranging from 4 to 12. To estimate the effects of temperature on antimicrobial activity, the peptide was incubated for 1 h at temperatures ranging from 40 to 100°C ([48]), followed by the antimicrobial assay as described above.” for “[44]).”

Enterobacter aerogenes = test: microbe, parasite or virus in culture; type: cell-based
Description: as §1

Escherichia coli = test: microbe, parasite or virus in culture; type: cell-based
Description: as §1

[1] = test system: NDM-1 Klebsiella pneumoniae; test: microbe, parasite or virus in culture; type: cell-based; settings: NDM-1
Description: as §1

Pseudomonas aeruginosa = test: microbe, parasite or virus in culture; type: cell-based
Description: as §1

MDR A. baumannii 1019 = test: microbe, parasite or virus in culture; type: cell-based, Acinetobacter baumannii; settings: MDR 1019
Description: as §1

MDR A. baumannii 1033 = test: microbe, parasite or virus in culture; type: cell-based, Acinetobacter baumannii; settings: MDR 1033
Description: as §1

MDR A. baumannii 14B0091 = test: microbe, parasite or virus in culture; type: cell-based, Acinetobacter baumannii; settings: MDR 14B0091
Description: as §1

MDR A. baumannii 1607 = test: microbe, parasite or virus in culture; type: cell-based, Acinetobacter baumannii; settings: MDR 1607
Description: as §1

MDR A. baumannii 1702 = test: microbe, parasite or virus in culture; type: cell-based, Acinetobacter baumannii; settings: MDR 1702
Description: as §1

MDR A. baumannii 2088 = test: microbe, parasite or virus in culture; type: cell-based, Acinetobacter baumannii; settings: MDR 2088
Description: as §1

MDR A. baumannii 2962 = test: microbe, parasite or virus in culture; type: cell-based, Acinetobacter baumannii; settings: MDR 2962
Description: as §1

MDR A. baumannii 2982 = test: microbe, parasite or virus in culture; type: cell-based, Acinetobacter baumannii; settings: MDR 2982
Description: as §1

MDR A. baumannii 2997 = test: microbe, parasite or virus in culture; type: cell-based, Acinetobacter baumannii; settings: MDR 2997
Description: as §1

MDR A. baumannii 2998 = test: microbe, parasite or virus in culture; type: cell-based, Acinetobacter baumannii; settings: MDR 2998
Description: as §1

MDR A. baumannii 3618 = test: microbe, parasite or virus in culture; type: cell-based, Acinetobacter baumannii; settings: MDR 3618
Description: as §1

MDR A. baumannii 921 = test: microbe, parasite or virus in culture; type: cell-based, Acinetobacter baumannii; settings: MDR 921
Description: as §1

CC[C@H](C)[C@H](NC(=O)[C@H](C)NC(=O)[C@H](CCCCN)NC(=O)CNC(=O)[C@H](C)NC(=O)[C@H](CO)NC(=O)[C@H](Cc1ccccc1)NC(=O)[C@H](CC(C)C)NC(=O)CNC(=O)CNC(=O)[C@@H](NC(=O)[C@@H](NC(=O)[C@H](Cc1c[nH]cn1)NC(=O)[C@H](Cc1c[nH]cn1)NC(=O)[C@@H](NC(=O)[C@@H](N)Cc1ccccc1)[C@@H](C)CC)[C@@H](C)CC)[C@@H](C)CC)C(=O)N[C@@H](Cc1c[nH]cn1)C(=O)N[C@@H](CCCNC(=N)N)C(=O)N[C@@H](CC(C)C)C(=O)N[C@H](C(=O)N[C@@H](CCCNC(=N)N)C(=O)N[C@@H](CCCNC(=N)N)C(=O)N[C@@H](CCCNC(=N)N)C(=O)N[C@@H](CCCNC(=N)N)C(=O)N[C@@H](CCCNC(=N)N)C(=O)O)[C@@H](C)CC [TP4, tilapia piscidin 4] (H-FIHHIIGGLFSAGKAIHRLIRRRRR-OH)
MBC (Staphylococcus aureus): 1.56 µM (≈ 4.65 µg/mL) | MIC (Staphylococcus aureus): 1.56 µM (≈ 4.65 µg/mL) | MBC (Acinetobacter baumannii; pH 6): 3.13−6.25 μM | MIC (Acinetobacter baumannii; pH 6): 3.13−6.25 μM | MBC (Acinetobacter baumannii; pH 7.4, read-out: MBC): 3.13 µM (≈ 9.33 µg/mL) | MIC (Acinetobacter baumannii; pH 7.4, read-out: MIC): 3.13 µM (≈ 9.33 µg/mL) | MBC (Acinetobacter baumannii; pH 8): 1.56−3.13 μM | MIC (Acinetobacter baumannii; pH 8): 1.56−3.13 μM | MBC (Acinetobacter baumannii; pH 10, read-out: MBC): 0.78 µM (≈ 2.33 µg/mL) | MIC (Acinetobacter baumannii; pH 10, read-out: MIC): 0.78 µM (≈ 2.33 µg/mL) | MBC (Enterobacter aerogenes): 0.78 µM (≈ 2.33 µg/mL) | MIC (Enterobacter aerogenes): 0.78 µM (≈ 2.33 µg/mL) | MBC (Escherichia coli): 3.13 µM (≈ 9.33 µg/mL) | MIC (Escherichia coli): 3.13 µM (≈ 9.33 µg/mL) | MBC [1]: 6.25 µM (≈ 18.6 µg/mL) | MIC [1]: 6.25 µM (≈ 18.6 µg/mL) | MBC (Pseudomonas aeruginosa; read-out: MBC): 12.5 µM (≈ 37.3 µg/mL) | MIC (Pseudomonas aeruginosa; read-out: MIC): 12.5 µM (≈ 37.3 µg/mL) | MBC (MDR A. baumannii 1019): <1.56 µM | MIC (MDR A. baumannii 1019): <1.56 µM | MBC (MDR A. baumannii 1033; read-out: MBC): 6.25 µM (≈ 18.6 µg/mL) | MIC (MDR A. baumannii 1033; read-out: MIC): <1.56 µM | MBC (MDR A. baumannii 14B0091): <1.56 µM | MIC (MDR A. baumannii 14B0091): <1.56 µM | MIC (MDR A. baumannii 1607): <1.56 µM | MBC (MDR A. baumannii 1607; read-out: MBC): <1.56 µM | MBC (MDR A. baumannii 1702; read-out: MBC): <1.56 µM | MIC (MDR A. baumannii 1702; read-out: MIC): <1.56 µM | MBC (MDR A. baumannii 2088; read-out: MBC): <1.56 µM | MIC (MDR A. baumannii 2088; read-out: MIC): <1.56 µM | MBC (MDR A. baumannii 2962): <1.56 µM | MIC (MDR A. baumannii 2962): <1.56 µM | MBC (MDR A. baumannii 2982): 3.13 µM (≈ 9.33 µg/mL) | MIC (MDR A. baumannii 2982): 3.13 µM (≈ 9.33 µg/mL) | MBC (MDR A. baumannii 2997; read-out: MBC): <1.56 µM | MIC (MDR A. baumannii 2997; read-out: MIC): <1.56 µM | MIC (MDR A. baumannii 2998): <1.56 µM | MBC (MDR A. baumannii 2998; read-out: MBC): <1.56 µM | MBC (MDR A. baumannii 3618): 6.25 µM (≈ 18.6 µg/mL) | MIC (MDR A. baumannii 3618): 3.13 µM (≈ 9.33 µg/mL) | MBC (MDR A. baumannii 921): <1.56 µM | MIC (MDR A. baumannii 921): <1.56 µM
